Some test systems named below: A498 renal; EKVX NSCLC; HOP-62 NSCLC; HOP-92 NSCLC; HT29 colon; MCF7 breast; SF-295 CNS; SF-539 CNS; SK-MEL-5 melanoma; SK-OV-3 ovarian.
What all share (assay): NCI tumour cell line growth inhibition, 48 h

Values joined by “and” are separate entries in the source; they are usually repeats but may differ in a detail not shown here. Identical values can stand only once.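 Cells were grown in 96-well plates and exposed to each compound for 48 hours at five concentrations; endpoints were interpolated linearly between bracketing concentrations, or set to the highest concentration if not reached. At the GI50, growth is halved. At the TGI there is no net growth.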 Where only a bound is given, the exact number is not on record here.

As to `Nc1nc(Cl)c(Cl)c(NCC2(O)CCC2)n1`, the TGI in the assay on A498 renal was 97 µM; with EKVX NSCLC it was more than 100 µM; with HOP-62 NSCLC it was more than 100 µM; with HOP-92 NSCLC, more than 100 µM; in the assay on HT29 colon it was more than 100 µM; in the assay on MCF7 breast, more than 100 µM. The TGI in the assay with SF-295 CNS, in the assay with SF-539 CNS, with SK-MEL-5 melanoma and in the assay with SK-OV-3 ovarian was more than 100 µM throughout.

For the compound `CC(=O)NC1=NC(=O)/C(=C/c2ccc(/C=C3/C(=O)N=C(NC(C)=O)N3C)cc2)N1C`, the TGI in the assay with A498 renal, with EKVX NSCLC, in the assay on HOP-62 NSCLC, in the assay with HOP-92 NSCLC, with HT29 colon and in the assay on MCF7 breast was more than 100 µM throughout. Moreover, the TGI in the assay on SF-295 CNS, in the assay with SF-539 CNS, in the assay on SK-MEL-5 melanoma and in the assay with SK-OV-3 ovarian was more than 100 µM each time.

As to `NCCN1C(=O)c2ccccc2C1c1ccc(Cl)cc1` (stereo not drawn), the TGI in the assay with A498 renal, in the assay with EKVX NSCLC, in the assay on HOP-62 NSCLC, in the assay on HOP-92 NSCLC, with HT29 colon and in the assay with MCF7 breast was more than 100 µM each time. Besides, the TGI with SF-295 CNS, in the assay on SF-539 CNS, in the assay on SK-MEL-5 melanoma and in the assay with SK-OV-3 ovarian was more than 100 µM each time.

Turning to `CC(Oc1ccccc1)C(=O)NNC(=O)OC(C)(C)C` (stereo not drawn), the TGI in the assay with A498 renal, in the assay on EKVX NSCLC, in the assay on HOP-62 NSCLC, with HOP-92 NSCLC, in the assay on HT29 colon and in the assay on MCF7 breast was more than 100 µM throughout. Besides, the TGI in the assay on SF-295 CNS, with SF-539 CNS, in the assay on SK-MEL-5 melanoma and in the assay on SK-OV-3 ovarian was more than 100 µM in each case.

Regarding `COc1nc2ccc(COc3ccc(C(=O)O)cc3)cc2nc1OC`, the TGI with A498 renal, with EKVX NSCLC, with HOP-62 NSCLC, in the assay on HOP-92 NSCLC, with HT29 colon and with MCF7 breast was more than 100 µM each time. The TGI with SF-295 CNS, with SF-539 CNS, in the assay with SK-MEL-5 melanoma and with SK-OV-3 ovarian was more than 100 µM each time.

On to `CC(=O)OCC1OC(n2c(S)c(C#N)c(-c3ccccc3)c(C#N)c2=O)C(OC(C)=O)C(OC(C)=O)C1OC(C)=O` (stereo not drawn), for which the GI50 in the assay on A498 renal is > 69 µM and 30.3 µM; with EKVX NSCLC, > 100 µM and 25.1 µM; with HT29 colon, > 100 µM and 24.3 µM; in the assay on MCF7 breast, > 100 µM and 33.7 µM; in the assay with SF-295 CNS, 29.4 µM and > 100 µM; in the assay with SF-539 CNS it was 51.6 µM and 25.7 µM. In addition, the GI50 was > 100 µM and 20.2 µM in the assay on SK-MEL-5 melanoma; 99.5 µM and 32.1 µM in the assay with SK-OV-3 ovarian. Moreover, the TGI in the assay with A498 renal is > 100 µM and 74 µM; in the assay on EKVX NSCLC, > 100 µM and 76.1 µM; in the assay on HOP-62 NSCLC it was 52.9 µM and 75.7 µM; with HOP-92 NSCLC it was 59.9 µM and 99.2 µM; with HT29 colon it was > 100 µM and 52.8 µM; with MCF7 breast it was > 100 µM and 97.6 µM. Moreover, the TGI in the assay with SF-295 CNS is more than 100 µM; in the assay on SF-539 CNS it was > 100 µM and 70.9 µM; in the assay with SK-MEL-5 melanoma, > 100 µM and 41.6 µM; in the assay on SK-OV-3 ovarian it was > 100 µM and 96.6 µM.

On to `COc1cc2c(/C=C3/C(=O)N(C)c4ccc(O)cc43)c(Cl)[nH]c2cc1C`, for which the TGI with A498 renal came out at 5.39 µM; in the assay on EKVX NSCLC, 23.9 µM; in the assay with HOP-62 NSCLC, 3.94 µM; in the assay with HOP-92 NSCLC, 38.5 µM; with HT29 colon, 46.7 µM; in the assay on MCF7 breast, 33.4 µM. For the same compound, the TGI turned out to be 2.93 µM with SF-295 CNS, 0.722 µM in the assay on SF-539 CNS, 6.35 µM in the assay on SK-MEL-5 melanoma and 3.13 µM with SK-OV-3 ovarian.

As for `Cn1c(=O)c2c(nc3sc4ccccc4c(=O)n32)n(C)c1=O`, the TGI in the assay on A498 renal, with EKVX NSCLC, in the assay on HOP-62 NSCLC, in the assay on HOP-92 NSCLC, in the assay with HT29 colon and in the assay with MCF7 breast was more than 100 µM throughout. Moreover, the TGI with SF-295 CNS, with SF-539 CNS, in the assay on SK-MEL-5 melanoma and in the assay on SK-OV-3 ovarian was more than 100 µM in each case.

For the compound `O=C1CN(c2cccc(Cl)c2)C(=O)CN1NCNN1CC(=O)N(c2cccc(Cl)c2)CC1=O`, the TGI in the assay with A498 renal, with EKVX NSCLC, in the assay with HOP-62 NSCLC, in the assay on HOP-92 NSCLC, in the assay with HT29 colon and in the assay with MCF7 breast was more than 100 µM throughout. Also, the TGI in the assay on SF-295 CNS, in the assay with SF-539 CNS, with SK-MEL-5 melanoma and with SK-OV-3 ovarian was more than 100 µM throughout.

On to `CC(C)(NC(=O)OCc1ccccc1)C(=O)OC(=O)C(C)(C)NC(=O)OCc1ccccc1`, for which the TGI in the assay with A498 renal, with EKVX NSCLC, in the assay on HOP-62 NSCLC, in the assay with HOP-92 NSCLC, in the assay on HT29 colon and in the assay on MCF7 breast was more than 100 µM in each case. Besides, the TGI in the assay with SF-295 CNS, in the assay with SF-539 CNS, in the assay with SK-MEL-5 melanoma and with SK-OV-3 ovarian was more than 100 µM each time.

Consider `O=C(NO)NCCCl`, for which the TGI in the assay with A498 renal, in the assay with EKVX NSCLC, with HOP-62 NSCLC, in the assay with HOP-92 NSCLC, in the assay with HT29 colon and in the assay on MCF7 breast was more than 100 µM in each case. For the same compound, the TGI in the assay with SF-295 CNS, with SF-539 CNS, in the assay with SK-MEL-5 melanoma and in the assay with SK-OV-3 ovarian was more than 100 µM each time.

Take `COc1cc(OC)c2c(c1)OC(c1cccnc1)C(c1ccccc1)C2=O` (stereo not drawn): the TGI in the assay on A498 renal, with EKVX NSCLC, in the assay with HOP-62 NSCLC, with HOP-92 NSCLC, in the assay with HT29 colon and in the assay with MCF7 breast was more than 100 µM each time. Moreover, the TGI with SF-295 CNS, with SF-539 CNS, in the assay with SK-MEL-5 melanoma and in the assay on SK-OV-3 ovarian was more than 100 µM in each case.

With `CC(=O)OCC1OC(n2c(Br)nc3c2c(=O)n(C)c(=O)n3C)C(OC(C)=O)C1OC(C)=O` (stereo not drawn), the TGI with A498 renal, in the assay on EKVX NSCLC, in the assay with HOP-62 NSCLC, in the assay with HOP-92 NSCLC, in the assay with HT29 colon and in the assay with MCF7 breast was more than 100 µM throughout. For the same compound, the TGI with SF-295 CNS, with SF-539 CNS, in the assay on SK-MEL-5 melanoma and in the assay with SK-OV-3 ovarian was more than 100 µM throughout.

Turning to `CCCCCCCCCCCCCCCCNc1ccn(C2CC(O)C(COC(c3ccccc3)(c3ccccc3)c3ccc(OC)cc3)O2)c(=O)n1` (stereo not drawn), the TGI in the assay with A498 renal, with EKVX NSCLC, in the assay on HOP-62 NSCLC, with HOP-92 NSCLC, in the assay on HT29 colon and in the assay with MCF7 breast was more than 100 µM throughout. For the same compound, the TGI in the assay on SF-295 CNS, in the assay on SF-539 CNS, with SK-MEL-5 melanoma and in the assay on SK-OV-3 ovarian was more than 100 µM each time.

`O=C(Cn1c(C(=O)c2ccccc2)nc2ccccc21)c1ccccc1`: the TGI was more than 100 µM in the assay with A498 renal; more than 100 µM in the assay with EKVX NSCLC; more than 100 µM in the assay on HOP-62 NSCLC; more than 100 µM with HOP-92 NSCLC; more than 31.6 µM in the assay with HT29 colon; more than 100 µM in the assay with MCF7 breast. Also, the TGI with SF-295 CNS, in the assay with SF-539 CNS, in the assay with SK-MEL-5 melanoma and in the assay with SK-OV-3 ovarian was more than 100 µM each time.

Turning to `O=c1c(Cc2ccc(Cl)cc2)nnc2sc(-c3ccc(-c4ccc(Cl)cc4Cl)o3)nn12`, the TGI with A498 renal, in the assay on EKVX NSCLC, in the assay with HOP-62 NSCLC, in the assay with HOP-92 NSCLC, in the assay on HT29 colon and in the assay with MCF7 breast was more than 100 µM in each case. For the same compound, the TGI in the assay with SF-295 CNS, in the assay on SF-539 CNS, with SK-MEL-5 melanoma and with SK-OV-3 ovarian was more than 100 µM throughout.

Take `CCN1CCC(CNC(=O)c2ccc(N)cc2)N1CC` (stereo not drawn): the TGI with A498 renal, in the assay on EKVX NSCLC, with HOP-62 NSCLC, with HOP-92 NSCLC, with HT29 colon and in the assay with MCF7 breast was more than 100 µM in each case. Also, the TGI with SF-295 CNS, with SF-539 CNS, with SK-MEL-5 melanoma and in the assay with SK-OV-3 ovarian was more than 100 µM each time.

For `C/C(=C/CC[C@]1(CO)CC[C@]2(C)[C@H](CC[C@@H]3[C@@]4(C)CC[C@H](OC5OC(CO)C(O)C(O)C5OC5OC(CO)C(O)C(O)C5O)C(C)(C)[C@@H]4CC[C@]32C)[C@H]1O)CO` (stereo partly drawn), the TGI in the assay on A498 renal, in the assay with EKVX NSCLC, in the assay with HOP-62 NSCLC, with HOP-92 NSCLC, with HT29 colon and with MCF7 breast was more than 100 µM each time. Further, the TGI in the assay with SF-295 CNS, with SF-539 CNS, in the assay on SK-MEL-5 melanoma and with SK-OV-3 ovarian was more than 100 µM in each case.

With `COC(=O)Nc1nc2ccc(S(=O)(=O)N3CCOCC3)cc2[nH]1`, the TGI in the assay with A498 renal, in the assay on EKVX NSCLC, in the assay with HOP-62 NSCLC, in the assay with HOP-92 NSCLC, in the assay with HT29 colon and in the assay on MCF7 breast was more than 100 µM throughout. Further, the TGI was more than 100 µM in the assay with SF-295 CNS, 31 µM in the assay on SF-539 CNS, more than 100 µM in the assay on SK-MEL-5 melanoma and more than 100 µM in the assay with SK-OV-3 ovarian.

For `O=C(SCc1cccc2ccccc12)c1ccc(Cl)cc1`, the TGI with A498 renal, with EKVX NSCLC, with HOP-62 NSCLC, in the assay with HOP-92 NSCLC, in the assay on HT29 colon and in the assay with MCF7 breast was more than 100 µM throughout. For the same compound, the TGI with SF-295 CNS, in the assay with SF-539 CNS, with SK-MEL-5 melanoma and in the assay with SK-OV-3 ovarian was more than 100 µM in each case.

The record behind these values is PubChem BioAssay (NCI).
